Assay results from ChEMBL document CHEMBL3098008, “Lactam based 7-amino suberoylamide hydroxamic acids as potent HDAC inhibitors” (Bioorg Med Chem Lett, 2014).

What was measured:
[1] = Cytotoxicity against human H460 cells; assay type: functional, cell-based; conditions: NCI-H460
Histone deacetylase 11 = target: T1, Histone deacetylase 11 (Homo sapiens, UniProt Q96DB2); assay: Inhibition of human HDAC11 using RHKK(Ac) as substrate by fluorimetric analysis
T1 sequence (Q96DB2 whole entry): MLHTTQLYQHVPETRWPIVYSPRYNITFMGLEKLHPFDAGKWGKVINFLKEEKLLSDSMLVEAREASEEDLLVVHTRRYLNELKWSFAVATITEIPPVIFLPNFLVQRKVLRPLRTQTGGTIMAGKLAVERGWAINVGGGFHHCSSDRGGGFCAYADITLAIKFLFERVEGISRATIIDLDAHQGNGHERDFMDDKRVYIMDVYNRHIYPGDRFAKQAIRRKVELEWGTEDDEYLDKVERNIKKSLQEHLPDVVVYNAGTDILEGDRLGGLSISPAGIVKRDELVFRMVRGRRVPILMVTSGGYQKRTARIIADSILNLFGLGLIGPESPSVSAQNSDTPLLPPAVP

[2] = target: T2, Polyamine deacetylase HDAC10 (Homo sapiens, UniProt Q969S8); assay: Inhibition of human HDAC10 using RHKK(Ac) as substrate by fluorimetric analysis
T2 sequence (Q969S8 whole entry): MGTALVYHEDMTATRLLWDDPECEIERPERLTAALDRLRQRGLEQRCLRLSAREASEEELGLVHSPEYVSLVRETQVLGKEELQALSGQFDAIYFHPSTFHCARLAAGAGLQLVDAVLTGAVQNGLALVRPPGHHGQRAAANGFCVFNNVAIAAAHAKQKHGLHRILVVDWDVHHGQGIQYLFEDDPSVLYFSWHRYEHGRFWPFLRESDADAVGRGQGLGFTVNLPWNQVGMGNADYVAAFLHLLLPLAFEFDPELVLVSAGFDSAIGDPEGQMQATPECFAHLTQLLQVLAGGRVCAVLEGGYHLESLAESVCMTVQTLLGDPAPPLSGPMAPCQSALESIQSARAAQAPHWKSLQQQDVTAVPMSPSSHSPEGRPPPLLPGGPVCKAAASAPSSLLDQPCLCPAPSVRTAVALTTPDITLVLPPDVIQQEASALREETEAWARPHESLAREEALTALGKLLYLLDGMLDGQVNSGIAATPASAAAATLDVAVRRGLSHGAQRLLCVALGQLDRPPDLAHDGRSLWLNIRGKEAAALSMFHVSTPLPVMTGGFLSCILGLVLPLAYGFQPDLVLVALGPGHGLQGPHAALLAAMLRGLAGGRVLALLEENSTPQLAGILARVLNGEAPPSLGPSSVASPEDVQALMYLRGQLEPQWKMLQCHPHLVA

[3] = target: T3, Protein deacetylase HDAC6 (Homo sapiens, UniProt Q9UBN7); assay: Inhibition of human HDAC6 using RHKK(Ac) as substrate by fluorimetric analysis
T3 sequence (Q9UBN7 whole entry): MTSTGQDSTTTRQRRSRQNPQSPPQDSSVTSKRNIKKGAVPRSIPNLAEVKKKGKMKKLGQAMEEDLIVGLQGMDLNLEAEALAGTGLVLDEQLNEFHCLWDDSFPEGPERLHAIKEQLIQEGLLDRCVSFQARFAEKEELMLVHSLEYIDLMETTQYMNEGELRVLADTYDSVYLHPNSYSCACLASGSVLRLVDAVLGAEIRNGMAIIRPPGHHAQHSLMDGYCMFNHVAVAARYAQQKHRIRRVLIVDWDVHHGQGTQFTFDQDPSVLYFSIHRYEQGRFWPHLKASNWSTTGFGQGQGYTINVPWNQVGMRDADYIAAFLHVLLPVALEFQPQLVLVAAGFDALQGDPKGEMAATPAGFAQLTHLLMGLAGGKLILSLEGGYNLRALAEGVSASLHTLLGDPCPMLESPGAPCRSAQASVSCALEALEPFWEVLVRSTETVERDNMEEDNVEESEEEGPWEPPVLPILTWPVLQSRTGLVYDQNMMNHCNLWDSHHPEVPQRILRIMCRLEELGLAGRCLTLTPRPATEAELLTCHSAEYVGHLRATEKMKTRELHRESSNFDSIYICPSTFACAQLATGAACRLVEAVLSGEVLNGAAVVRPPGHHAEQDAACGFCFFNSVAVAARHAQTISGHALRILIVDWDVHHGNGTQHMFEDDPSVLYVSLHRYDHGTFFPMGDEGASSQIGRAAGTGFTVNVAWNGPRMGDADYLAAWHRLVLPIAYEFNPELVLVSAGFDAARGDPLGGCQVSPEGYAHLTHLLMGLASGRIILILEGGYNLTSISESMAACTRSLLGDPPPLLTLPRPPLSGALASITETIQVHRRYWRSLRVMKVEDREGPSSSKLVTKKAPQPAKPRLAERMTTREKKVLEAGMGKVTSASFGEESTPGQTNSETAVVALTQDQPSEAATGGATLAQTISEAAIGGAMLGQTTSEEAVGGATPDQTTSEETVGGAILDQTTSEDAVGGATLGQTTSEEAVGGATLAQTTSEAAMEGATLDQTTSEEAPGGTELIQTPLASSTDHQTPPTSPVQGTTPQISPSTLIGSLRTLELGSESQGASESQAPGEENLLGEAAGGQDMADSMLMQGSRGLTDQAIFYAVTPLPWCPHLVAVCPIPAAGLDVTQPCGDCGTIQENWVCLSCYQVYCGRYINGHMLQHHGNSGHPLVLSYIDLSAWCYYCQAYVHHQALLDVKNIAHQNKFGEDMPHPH

[4] = target: Histone deacetylase 3/Nuclear receptor corepressor 2 (HDAC3/NCoR2) (Homo sapiens, UniProt O15379); assay: Inhibition of human HDAC3/NCOR2 using RHKK(Ac) as substrate by fluorimetric analysis; assay type: protein-complex assay
Sequence of Histone deacetylase 3/Nuclear receptor corepressor 2 (HDAC3/NCoR2) (O15379 whole entry): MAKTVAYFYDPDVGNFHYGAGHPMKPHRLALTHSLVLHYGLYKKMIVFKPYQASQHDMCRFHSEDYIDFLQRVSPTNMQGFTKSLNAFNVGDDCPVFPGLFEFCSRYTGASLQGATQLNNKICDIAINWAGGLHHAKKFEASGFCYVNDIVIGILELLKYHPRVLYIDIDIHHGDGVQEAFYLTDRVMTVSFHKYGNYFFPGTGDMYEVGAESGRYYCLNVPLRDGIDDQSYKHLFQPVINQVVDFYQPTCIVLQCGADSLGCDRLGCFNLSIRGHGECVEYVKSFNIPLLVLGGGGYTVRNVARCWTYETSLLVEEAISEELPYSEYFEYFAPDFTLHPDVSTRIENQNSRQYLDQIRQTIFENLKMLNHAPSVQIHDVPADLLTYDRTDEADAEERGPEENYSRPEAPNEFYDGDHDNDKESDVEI
Sequence of Histone deacetylase 3/Nuclear receptor corepressor 2 (HDAC3/NCoR2) (Q9Y618 whole entry, further chain): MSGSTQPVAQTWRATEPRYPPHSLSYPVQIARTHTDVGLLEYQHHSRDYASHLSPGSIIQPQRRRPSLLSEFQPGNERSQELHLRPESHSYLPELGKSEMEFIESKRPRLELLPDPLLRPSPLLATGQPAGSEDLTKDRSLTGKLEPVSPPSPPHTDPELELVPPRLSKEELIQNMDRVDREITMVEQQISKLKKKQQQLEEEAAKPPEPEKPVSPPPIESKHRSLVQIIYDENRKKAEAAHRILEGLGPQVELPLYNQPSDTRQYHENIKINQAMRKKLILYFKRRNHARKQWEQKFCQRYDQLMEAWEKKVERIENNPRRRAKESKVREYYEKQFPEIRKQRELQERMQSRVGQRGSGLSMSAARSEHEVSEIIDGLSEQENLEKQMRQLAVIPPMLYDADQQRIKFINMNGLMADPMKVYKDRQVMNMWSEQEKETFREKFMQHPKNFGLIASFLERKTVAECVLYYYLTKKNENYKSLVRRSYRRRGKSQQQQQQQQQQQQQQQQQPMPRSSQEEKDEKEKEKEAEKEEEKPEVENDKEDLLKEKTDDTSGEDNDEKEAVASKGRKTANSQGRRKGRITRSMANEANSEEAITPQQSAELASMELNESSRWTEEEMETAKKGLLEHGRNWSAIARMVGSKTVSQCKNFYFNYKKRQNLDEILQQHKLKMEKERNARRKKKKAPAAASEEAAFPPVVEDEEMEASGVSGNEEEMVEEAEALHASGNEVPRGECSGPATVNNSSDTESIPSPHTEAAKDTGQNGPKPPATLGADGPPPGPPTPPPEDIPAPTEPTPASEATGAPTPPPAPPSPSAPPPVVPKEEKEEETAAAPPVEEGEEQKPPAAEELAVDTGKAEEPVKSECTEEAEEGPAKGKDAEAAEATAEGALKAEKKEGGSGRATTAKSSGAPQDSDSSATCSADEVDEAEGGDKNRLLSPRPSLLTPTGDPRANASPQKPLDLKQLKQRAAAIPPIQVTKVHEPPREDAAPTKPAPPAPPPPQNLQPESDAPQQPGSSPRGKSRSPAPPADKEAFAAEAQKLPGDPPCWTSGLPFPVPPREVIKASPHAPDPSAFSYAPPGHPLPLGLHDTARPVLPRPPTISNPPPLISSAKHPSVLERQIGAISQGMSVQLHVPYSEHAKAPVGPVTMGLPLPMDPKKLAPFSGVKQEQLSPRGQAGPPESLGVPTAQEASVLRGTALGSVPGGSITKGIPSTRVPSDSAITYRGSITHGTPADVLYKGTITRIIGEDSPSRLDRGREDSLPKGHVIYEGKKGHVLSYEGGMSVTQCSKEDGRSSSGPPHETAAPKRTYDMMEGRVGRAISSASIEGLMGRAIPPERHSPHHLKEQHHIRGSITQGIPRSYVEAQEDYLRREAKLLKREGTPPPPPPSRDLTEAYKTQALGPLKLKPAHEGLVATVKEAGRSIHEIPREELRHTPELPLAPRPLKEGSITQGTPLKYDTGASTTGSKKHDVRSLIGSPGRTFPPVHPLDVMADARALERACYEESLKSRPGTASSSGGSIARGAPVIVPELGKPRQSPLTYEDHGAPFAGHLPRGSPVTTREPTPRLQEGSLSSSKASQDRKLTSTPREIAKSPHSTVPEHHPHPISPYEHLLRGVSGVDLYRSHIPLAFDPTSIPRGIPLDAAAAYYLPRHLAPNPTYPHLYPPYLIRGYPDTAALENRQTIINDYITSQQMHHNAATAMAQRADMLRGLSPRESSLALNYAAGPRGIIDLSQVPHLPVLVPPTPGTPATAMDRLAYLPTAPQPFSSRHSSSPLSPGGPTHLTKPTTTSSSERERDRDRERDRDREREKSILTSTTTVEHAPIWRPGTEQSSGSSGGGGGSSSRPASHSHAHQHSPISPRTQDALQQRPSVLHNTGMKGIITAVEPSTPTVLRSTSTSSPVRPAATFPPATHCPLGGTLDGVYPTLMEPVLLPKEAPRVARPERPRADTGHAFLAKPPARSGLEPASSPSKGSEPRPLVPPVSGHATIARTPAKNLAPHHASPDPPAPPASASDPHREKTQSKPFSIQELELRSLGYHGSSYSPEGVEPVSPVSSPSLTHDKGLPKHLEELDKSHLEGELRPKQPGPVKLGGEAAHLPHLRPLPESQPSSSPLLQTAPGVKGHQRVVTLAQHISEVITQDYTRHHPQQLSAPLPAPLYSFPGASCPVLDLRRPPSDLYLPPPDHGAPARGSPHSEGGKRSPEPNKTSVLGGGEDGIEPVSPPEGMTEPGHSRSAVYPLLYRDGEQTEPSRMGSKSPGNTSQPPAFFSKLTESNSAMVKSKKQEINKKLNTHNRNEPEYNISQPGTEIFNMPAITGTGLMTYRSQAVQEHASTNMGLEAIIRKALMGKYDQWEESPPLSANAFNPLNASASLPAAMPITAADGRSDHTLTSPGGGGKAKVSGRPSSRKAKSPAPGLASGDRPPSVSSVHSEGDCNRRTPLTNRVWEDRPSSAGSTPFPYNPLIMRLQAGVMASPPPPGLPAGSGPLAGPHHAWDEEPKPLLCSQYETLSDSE

Histone deacetylase 2 = Histone deacetylase 2 (Homo sapiens, UniProt Q92769); assay: Inhibition of human HDAC2 using RHKK(Ac) as substrate by fluorimetric analysis
Sequence of Histone deacetylase 2 (Q92769 whole entry): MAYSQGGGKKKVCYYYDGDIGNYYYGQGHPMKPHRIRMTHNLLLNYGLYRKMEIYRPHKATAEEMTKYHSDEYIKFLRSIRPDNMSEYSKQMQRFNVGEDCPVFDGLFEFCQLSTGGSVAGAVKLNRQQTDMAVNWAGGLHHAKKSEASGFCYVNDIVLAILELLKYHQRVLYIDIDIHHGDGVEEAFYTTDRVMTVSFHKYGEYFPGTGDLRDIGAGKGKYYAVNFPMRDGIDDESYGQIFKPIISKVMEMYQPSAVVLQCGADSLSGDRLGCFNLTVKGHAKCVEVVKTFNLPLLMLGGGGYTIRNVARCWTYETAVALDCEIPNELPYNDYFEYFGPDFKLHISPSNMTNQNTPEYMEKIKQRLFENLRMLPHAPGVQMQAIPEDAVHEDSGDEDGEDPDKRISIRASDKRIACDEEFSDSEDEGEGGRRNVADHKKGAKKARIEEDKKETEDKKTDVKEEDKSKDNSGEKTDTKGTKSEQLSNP

Histone deacetylase 1 = Histone deacetylase 1 (Homo sapiens, UniProt Q13547); assay: Inhibition of human HDAC1 using RHKK(Ac) as substrate by fluorimetric analysis
Sequence of Histone deacetylase 1 (Q13547 whole entry): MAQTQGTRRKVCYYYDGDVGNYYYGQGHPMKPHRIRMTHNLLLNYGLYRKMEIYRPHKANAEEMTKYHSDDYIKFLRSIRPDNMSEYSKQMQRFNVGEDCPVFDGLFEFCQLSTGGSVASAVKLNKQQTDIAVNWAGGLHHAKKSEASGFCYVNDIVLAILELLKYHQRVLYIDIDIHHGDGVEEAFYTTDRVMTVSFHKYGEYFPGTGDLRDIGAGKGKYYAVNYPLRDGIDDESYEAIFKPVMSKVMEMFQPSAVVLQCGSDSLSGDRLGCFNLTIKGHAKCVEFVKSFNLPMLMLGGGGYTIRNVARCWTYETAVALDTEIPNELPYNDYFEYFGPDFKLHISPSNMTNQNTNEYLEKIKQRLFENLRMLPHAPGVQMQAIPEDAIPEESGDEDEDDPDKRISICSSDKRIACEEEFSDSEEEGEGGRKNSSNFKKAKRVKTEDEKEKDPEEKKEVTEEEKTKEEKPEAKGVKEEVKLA

| Structure (SMILES) | IC50 [1] | IC50 (Histone deacetylase 11) | IC50 [2] | IC50 [3] | IC50 [4] | IC50 (Histone deacetylase 2) | IC50 (Histone deacetylase 1) |
| --- | --- | --- | --- | --- | --- | --- | --- |
| O=C(CCCCC[C@H](NC(=O)[C@@H]1CC(=O)N1)C(=O)Nc1ccccc1)NO | 2200 nM | 135 nM | 113 nM | 3 nM | 62 nM | 89 nM | 34 nM |
| O=C(CCCCC[C@H](NC(=O)[C@H]1CCC(=O)N1)C(=O)Nc1cccc(C(F)(F)F)c1)NO | 500 nM | 55.5 nM | 10.6 nM | 2 nM | 2 nM | 8 nM | 2 nM |
| Cc1ccc(NC(=O)CCCCCCC(=O)NO)cc1 | 4100 nM | 78.6 nM | 649 nM | 12 nM | 452 nM | 589 nM | 200 nM |
| O=C(CCCCCCC(=O)Nc1cccc(C(F)(F)F)c1)NO | 2500 nM | 75.1 nM | 374 nM | 6 nM | 185 nM | 165 nM | 63 nM |
| O=C(CCCCC[C@H](NC(=O)[C@H]1CCC(=O)N1)C(=O)NCCc1ccccc1)NO | 4900 nM | 47.8 nM | 210 nM | 6 nM | 144 nM | 180 nM | 77 nM |
| Cc1cccc(NC(=O)CCCCCCC(=O)NO)c1 | 800 nM | 1600 nM | 503 nM | 22 nM | 216 nM | – | 197 nM |
| O=C(CCCCC[C@H](NC(=O)C1CCCNC1=O)C(=O)Nc1ccccc1)NO (stereo not given in full) | 5100 nM | 255 nM | 244 nM | 19 nM | 116 nM | 689 nM | 131 nM |
| O=C(CCCCC[C@H](NC(=O)[C@@H]1CCCC(=O)N1)C(=O)Nc1ccccc1)NO | 2500 nM | 47 nM | 51 nM | 5 nM | 20 nM | 89 nM | 25 nM |
| O=C(CCCCCCC(=O)NCCc1ccccc1)NO | 18200 nM | 1130 nM | 1350 nM | 25 nM | 3610 nM | 5160 nM | 1140 nM |
| O=C(CCCCC[C@H](NC(=O)[C@@H]1CCCC(=O)N1)C(=O)NCCc1ccccc1)NO | 8200 nM | 262 nM | 227 nM | 8 nM | 539 nM | 956 nM | 102 nM |
| O=C(CCCCC[C@H](NC(=O)C1C(=O)NCC1c1ccccc1)C(=O)Nc1ccccc1)NO (stereo not given in full) | 2400 nM | 70 nM | 88 nM | 4 nM | 14 nM | 110 nM | 33 nM |
| O=C(CCCCCCC(=O)NC1CCCC1)NO | 21000 nM | 2630 nM | 4890 nM | 75 nM | 3330 nM | 4390 nM | 1790 nM |
| O=C(CCCCC[C@H](NC(=O)[C@H]1CCC(=O)N1)C(=O)Nc1ccccc1)NO | 4000 nM | 75 nM | 93 nM | 8 nM | 67 nM | 142 nM | 43 nM |
| O=C(CCCCC[C@H](NC(=O)[C@@H]1CCCC(=O)N1)C(=O)NC1CCCC1)NO | 2400 nM | 1440 nM | 6830 nM | 31 nM | 5660 nM | 5040 nM | 1450 nM |
| Cc1cccc(NC(=O)[C@H](CCCCCC(=O)NO)NC(=O)[C@H]2CCC(=O)N2)c1 | 500 nM | 15.5 nM | 30.3 nM | 3 nM | 11 nM | 27 nM | 7 nM |
| O=C(CCCCC[C@H](NC(=O)[C@@H]1CCC(=O)N1)C(=O)Nc1ccccc1)NO | 5400 nM | 37 nM | 125 nM | 6 nM | 89 nM | 143 nM | 59 nM |
| Cc1ccc(NC(=O)[C@H](CCCCCC(=O)NO)NC(=O)[C@H]2CCC(=O)N2)cc1 | 600 nM | 127 nM | 163 nM | 4 nM | 66 nM | 93 nM | 32 nM |
| O=C(CCCCC[C@H](NC(=O)C1CCNC1=O)C(=O)Nc1ccccc1)NO (stereo not given in full) | 4000 nM | 150 nM | 147 nM | 4 nM | 74 nM | 238 nM | 72 nM |
